Entries after “also recorded” stand apart in the source; their conditions may differ.

This experiment has as its system human PBMCs co-cultured with H1299 cells. Kind of experiment: H1299 / PBMC co-culture cytokine assay. It counts as cell-based. To be noted: 4 days, stimulated PBMCs + H1299, FIG. 6. As for the experimental part:
The ability of Compound 1 to cooperate with checkpoint blockade to further boost antitumor responses was evaluated. H1299 lung cancer cells were co-cultured with stimulated human PBMCs treated with Compound 1, anti-human programmed cell death (PD)-1 antibody retifanlimab or the combination, and production of proinflammatory cytokines was assessed in two different experiments (FIG. 6).
H1299 cells were co-cultured with human PBMCs, each at 4 or 16×10^4 cells/mL in RPMI containing 10% FBS, 100 U/mL of penicillin-streptomycin (ThermoFisher Scientific; #15140-122) and 1× beta-mercaptoethanol (ThermoFisher Scientific; #21985-023). Compound 1 or retifanlimab were added as single agents or in combination to the cells. Anti-CD3 (BD Biosciences #555336), anti-CD28 (BD Biosciences #555725) or SEA (Toxin Technology, Sarasota, Fla.; #AT101red) were added at a final concentration of 1 μg/mL, 0.5 μg/mL or 100 ng/mL, respectively, to stimulate cell growth. Cultures were incubated at 37° C. in 5% CO2 incubator for 4 days. The supernatant was collected for cytokine analysis using a multiplex assay system (custom human ProcartaPlex Luminex kit, ThermoFisher Scientific; #PPX-15-MXRWE6P).

“retifanlimab: humanized, IgG4 monoclonal antibody that binds to human PD-1; heavy chain SEQ ID NO:2, light chain SEQ ID NO:3”: the proinflammatory cytokine production result is recorded as “induced these cytokines in a subset of donors; also recorded: induction of proinflammatory cytokines”.

These data come from patent publication US12214036B2, “Combination therapy comprising AXL/MER and PD-1/PD-L1 inhibitors” (Incyte Corporation, priority 2020, dated 2025).
